The target of test [1] is T1, interaction between PD-1 and PD-L1 expressed on cell surfaces (Jurkat/NF-κB-luc/PD1 cells cocultured with Raji-PD-L1 cells) (Homo sapiens, UniProt Q9NZQ7).
T1 construct: expressed in transfected cells; host or cells: Raji cells (PD-L1); Jurkat cells (PD-1, NF-κB-luc reporter)
The experiment in a line: Jurkat reporter gene cellular assay. The format is cell-based. The conditions noted are these: OKT3 1 μg/mL stimulation, 6 hrs, activation fold vs DMSO. How it is done:
The effect of compounds of the examples of the present invention on the interaction between PD-1 and PD-L1 expressed on cell surfaces, and the related influence on T cell functions, were determined by a Jurkat reporter gene cellular assay.
Briefly, the reporter gene plasmid of NF-κB-luc and the plasmid of human PD-1 were transfected into Jurkat cells to establish a stably transfected cell line capable of stably expressing both PD-1 and NF-κB-Luc reporter genes; the expression level of PD-1 on the cell surface was confirmed by flow cytometry; and the expression of the reporter gene was confirmed via the response of the reporter gene stimulated by OKT-3 and Raji cells.
In addition, the plasmid of human PD-L1 was transfected into Raji cells to obtain a cell line capable of stably expressing PD-L1. Jurkat/NF-κB-luc/PD1 cells and Raji-PD-L1 cells were then cocultured and stimulated with OKT-3. On this basis, the compounds were added, and the enhancement of the signal pathway of T cell activation by the inhibitory effect of the compounds on the interaction between PD-1 and PD-L1 was evaluated by readings of reporter gene responses. The specific experimental process was as follows:
1) 30 μL of compound or antibody solution was added to each well of a white 96-well plate (Corning, 3610) at different diluted concentrations, and 10 μL of OKT3 (Biolegend, 317326) was then added (the final concentration of OKT3: 1 μg/mL);
2) 20 μL of Raji-PD-L1 cell suspension was added to each well with 5*10^4 cells for each well, and was incubated in an incubator for 20 min;
3) 20 μL of Jurkat/NF-Kb-luc/PD-1 cell suspension was added to each well with 5*10^4 cells for each well, and was well mixed, and 6 hrs later, Bright-glo (Promega, E2620) was applied and plates were read on Envision;
4) The reading of each well treated with the compound was compared with the reading of each well treated with DMSO to obtain the activation fold of the compound; and
5) EC50 values of compounds of the examples of the present invention were determined by non-linear regression analysis of activation folds at different compound concentrations.

The target in test [2] is T2, interaction between PD-1 and PD-L1 (Homo sapiens, UniProt Q9NZQ7).
T2 construct: purchased Cisbio 64ICP01PEG or 64ICP01PEH
T2 sequence (Q9NZQ7 19-238 limits assumed): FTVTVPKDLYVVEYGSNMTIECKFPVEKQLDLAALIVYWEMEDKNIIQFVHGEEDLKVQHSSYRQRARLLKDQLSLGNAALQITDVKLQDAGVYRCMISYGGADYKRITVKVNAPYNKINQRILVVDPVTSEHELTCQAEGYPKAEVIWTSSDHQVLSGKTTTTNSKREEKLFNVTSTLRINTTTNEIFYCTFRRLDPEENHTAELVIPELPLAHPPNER
The experiment in a line: PD1-PDL1 HTRF binding activity test. The conditions noted are these: Cisbio PD-1/PD-L1 binding assay kit; percent inhibition vs DMSO. As for the experimental part:
The effect of compounds of the examples of the present invention on the interaction between PD-1 and PD-L1 was determined by the PD-1/PD-L1 binding assay kit from Cisbio (#64ICP01PEG or 64ICP01PEH). The detailed experimental process was as follows:
1) Pre-diluted compound solution, 4 μL of Tag1-PD-L1 and 4 μL of Tag2-PD1 were added to each well of a 384-well plate;
2) After the mixture was incubated at room temperature for 15 min, 5 μL of anti-Tag1-Eu3+ antibody and 5 μL of anti-Tag2-XL665 antibody were then added;
3) After incubated for 2 hrs at room temperature or overnight at 4° C., plates were read on Envision of Perkin Elmer; and readings at 665 nm and 620 nm were recorded, and the ratio of the two readings was taken as a reading for each well;
4) The reading of each well after compound treatment was compared with the reading of DMSO treated wells to obtain the percent inhibition of the compound; and
5) IC50 values of compounds of the examples of the present invention were determined by non-linear regression analysis of percent inhibition at different compound concentrations.
On the technique in general: Time-resolved FRET reads energy transfer from a long-lived donor to a nearby acceptor.

T1 sequence (Q9NZQ7 19-290): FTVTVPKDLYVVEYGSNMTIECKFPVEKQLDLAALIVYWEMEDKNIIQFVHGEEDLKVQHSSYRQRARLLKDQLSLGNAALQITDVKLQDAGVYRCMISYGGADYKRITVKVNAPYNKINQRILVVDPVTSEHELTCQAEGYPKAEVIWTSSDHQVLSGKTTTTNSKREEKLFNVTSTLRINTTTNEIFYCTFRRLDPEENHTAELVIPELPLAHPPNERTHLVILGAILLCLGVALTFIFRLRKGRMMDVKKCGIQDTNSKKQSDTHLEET

Usually EC50 stands for the concentration needed to bring the measured effect to its halfway point. High values mean a need for much substance, low ones an effect from little substance. Broadly, the IC50 is the midpoint of a concentration-inhibition curve. Turning to `Cc1c(NC(=O)c2cc(C3CC3)c(CN[C@@H]3CCC[C@H]3O)cn2)cccc1-c1cccc(NC(=O)c2cc(C3CC3)c(CN3CCCC[C@H]3C(=O)O)cn2)c1C` [Example 6, (S)-1-((4-cyclopropyl-6-((3′-(4-cyclopropyl-5-((((1R,2R)-2-hydroxycyclopentyl)amino)methyl)picolinamido)-2, 2′-dimethyl-[1,1′-biphenyl]-3-yl)carbamoyl)pyridin-3-yl)methyl)piperidine-2-carboxylic acid], the EC50 in test [1] turned out to be 49.3 nM. The compound also had an IC50 in test [2] of 1.69 nM. For `Cc1c(NC(=O)c2cc(C3CC3)c(CNC3CCCC3)cn2)cccc1-c1cccc(NC(=O)c2cc(C3CC3)c(CN3CCCC[C@H]3C(=O)O)cn2)c1C` [Example 11, (S)-1-((4-cyclopropyl-6-((3′-(4-cyclopropyl-5-((cyclopentylamino)methyl)picolinamido)-2,2′-dimethyl-[1,1′-biphenyl]-3-yl)carbamoyl)pyridin-3-yl)methyl) piperidine-2-carboxylic acid], the EC50 in test [1] is 14.5 nM. The same compound displayed an IC50 in test [2] of 3.19 nM.

`Cc1c(NC(=O)c2cc(C3CC3)c(CN3CCC[C@@H]3CO)cn2)cccc1-c1cccc(NC(=O)c2cc(C3CC3)c(CN3CCCC[C@H]3C(=O)O)cn2)c1C` [Example 28, (S)-1-((4-cyclopropyl-6-((3′-(4-cyclopropyl-5-(((R)-2-(hydroxymethyl)pyrolidin-1-yl)methyl)picolinamido)-2, 2′-dimethyl-[1,1′-biphenyl]-3-yl)carbamoyl)pyridin-3-yl)methyl)piperidine-2-carboxylic acid] yielded an EC50 in test [1] of 35.3 nM. In test [2], this compound showed an IC50 of 4.17 nM. `CCOC(=O)[C@H](CO)NCc1cnc(C(=O)Nc2cccc(-c3cccc(NC(=O)c4cc(C5CC5)c(CN5CCCC[C@H]5C(=O)O)cn4)c3C)c2C)cc1C1CC1` [Example 31, (S)-1-((4-cyclopropyl-6-((3′-(4-cyclopropyl-5-((((S)-1-ethoxy-3-hydroxy-1-oxopropan-2-yl)amino)methyl)picolinamido)-2,2′-dimethyl-[1,1′-biphenyl]-3-yl)carbamoyl)pyridin-3-yl)methyl) piperidine-2-carboxylic acid] returned an EC50 in test [1] of 42.6 nM. Moreover, the IC50 in test [2] was 2.57 nM.

Turning to `CCOC(=O)[C@@H](CO)NCc1cnc(C(=O)Nc2cccc(-c3cccc(NC(=O)c4cc(C5CC5)c(CN5CC[C@@H](O)C5)cn4)c3C)c2C)cc1C1CC1` [Example 53-1, Ethyl ((4-cyclopropyl-6-((3′-(4-cyclopropyl-5-(((R)-3-hydroxypyrrolidin-1-yl)methyl)picolinamido)-2,2′-dimethyl-[1,1′-biphenyl]-3-yl)carbamoyl)pyridin-3-yl)methyl)-D-serinate], it took 258 nM to reach a half-maximal effect in test [1] (EC50). Further, in test [2], the IC50 stood at 5.77 nM. The compound `CCNCc1cnc(C(=O)Nc2cccc(-c3cccc(NC(=O)c4cc(C5CC5)c(CN5CCCC[C@H]5C(=O)O)cn4)c3C)c2C)cc1C1CC1` [Example 8, (S)-1-((4-cyclopropyl-6-((3′-(4-cyclopropyl-5-((ethylamino)methyl)picolinamido)-2,2′-dimethyl-[1,1′-biphenyl]-3-yl)carbamoyl)pyridin-3-yl)methyl) piperidine-2-carboxylic acid] came in with an EC50 in test [1] of 23.8 nM. Further, the half-maximal inhibitory concentration (IC50) in test [2] is 1.27 nM.

With `Cc1c(NC(=O)c2cc(C3CC3)c(CN[C@@H](C)CO)cn2)cccc1-c1cccc(NC(=O)c2cc(C3CC3)c(CN[C@H](CO)C(=O)O)cn2)c1C` [Example 39, ((4-cyclopropyl-6-((3′-(4-cyclopropyl-5-((((S)-1-hydroxypropan-2-yl)amino)methyl)picolinamido)-2,2′-dimethyl-[1,1′-biphenyl]-3-yl)carbamoyl)pyridin-3-yl)methyl)-D-serine], the EC50 in test [1] stood at 36 nM. In test [2], this compound gave an IC50 of 1.89 nM.

The compound `CCOC(=O)[C@@H](CO)NCc1cnc(C(=O)Nc2cccc(-c3cccc(NC(=O)c4cc(C5CC5)c(CN[C@@H](C)CO)cn4)c3C)c2C)cc1C1CC1` [Example 39-1, Ethyl ((4-cyclopropyl-6-((3′-(4-cyclopropyl-5-((((S)-1-hydroxypropan-2-yl)amino)methyl)picolinamido)-2,2′-dimethyl-[1,1′-biphenyl]-3-yl)carbamoyl)pyridin-3-yl)methyl)-D-serinate] had an EC50 in test [1] of 264 nM. The compound also gave an IC50 in test [2] of 3.22 nM.

The compound `Cc1c(NC(=O)c2cc(C3CC3)c(CN3CCCC3)cn2)cccc1-c1cccc(NC(=O)c2cc(C3CC3)c(CN3CCCC[C@H]3C(=O)O)cn2)c1C` [Example 12] returned an EC50 in test [1] of 10.6 nM. Further, the 50% inhibitory concentration (IC50) in test [2] came out at 1.02 nM. As to `Cc1c(NC(=O)c2cc(C3CC3)c(CNC3CCOCC3)cn2)cccc1-c1cccc(NC(=O)c2cc(C3CC3)c(CN[C@H](CO)C(=O)O)cn2)c1C` [Example 51, ((4-cyclopropyl-6-((3′-(4-cyclopropyl-5-(((tetrahydro-2H-pyran-4-yl)amino)methyl)picolinamido)-2,2′-dimethyl-[1,1′-biphenyl]-3-yl)carbamoyl)pyridin-3-yl)methyl)-D-serine], the EC50 in test [1] is 87.1 nM. In test [2], this compound returned an IC50 of 2.05 nM. `Cc1c(NC(=O)c2cc(C3CC3)c(CN[C@H]3CCC[C@@H]3O)cn2)cccc1-c1cccc(NC(=O)c2cc(C3CC3)c(CN[C@H](CO)C(=O)O)cn2)c1C` [Example 40, ((4-cyclopropyl-6-((3′-(4-cyclopropyl-5-((((1S,2S)-2-hydroxycyclopentyl)amino)methyl)picolinamido)-2,2′-dimethyl-[1,1′-biphenyl]-3-yl)carbamoyl)pyridin-3-yl)methyl)-D-serine] came in with an EC50 in test [1] of 39.2 nM. Further, the 50% inhibitory concentration (IC50) in test [2] amounted to 1.68 nM. In turn, `Cc1c(NC(=O)c2cc(C3CC3)c(CN3CC(C)(O)C3)cn2)cccc1-c1cccc(NC(=O)c2cc(C3CC3)c(CN3CCCC[C@H]3C(=O)O)cn2)c1C` [Example 15, (S)-1-((4-cyclopropyl-6-((3′-(4-cyclopropyl-5-((3-hydroxy-3-methylazetidin-1-yl)methyl)picolinamido)-2,2′-dimethyl-[1,1′-biphenyl]-3-yl)carbamoyl)pyridin-3-yl)methyl)piperidine-2-carboxylic acid] returned an EC50 in test [1] of 15.1 nM. The IC50 in test [2] was 0.68 nM. Regarding `Cc1c(NC(=O)c2cc(C3CC3)c(CN[C@H](CO)C(=O)O)cn2)cccc1-c1cccc(NC(=O)c2cc(C3CC3)c(CN3CC(C)(O)C3)cn2)c1C` [Example 36, ((4-cyclopropyl-6-((3′-(4-cyclopropyl-5-((3-hydroxy-3-methylazetidin-1-yl)methyl)picolinamido)-2,2′-dimethyl-[1,1′-biphenyl]-3-yl)carbamoyl)pyridin-3-yl)methyl)-D-serine], in test [1], the response was half-maximal at 52 nM (EC50). The IC50 in test [2] is 0.72 nM. The compound `CCOC(=O)[C@@H](CO)NCc1cnc(C(=O)Nc2cccc(-c3cccc(NC(=O)c4cc(C5CC5)c(CN5CC(C)(O)C5)cn4)c3C)c2C)cc1C1CC1` [Example 36-1, ethyl ((4-cyclopropyl-6-((3′-(4-cyclopropyl-5-((3-hydroxy-3-methylazetidin-1-yl)methyl)picolinamido)-2,2′-dimethyl-[1,1′-biphenyl]-3-yl)carbamoyl)pyridin-3-yl)methyl)-D-serinate] displayed a 50% inhibitory concentration (IC50) in test [2] of 64.3 nM. On to `CCOC(=O)[C@H](CO)NCc1cnc(C(=O)Nc2cccc(-c3cccc(NC(=O)c4cc(C5CC5)c(CNCCO)cn4)c3C)c2C)cc1C1CC1` [Example 37-1, Ethyl ((4-cyclopropyl-6-((3′-(4-cyclopropyl-5-(((2-hydroxyethyl)amino)methyl)picolinamido)-2,2′-dimethyl-[1,1′-biphenyl]-3-yl)carbamoyl)pyridin-3-yl)methyl)-L-serinate], for which, in test [1], the response was half-maximal at 265 nM (EC50). For the same compound, the IC50 in test [2] came to 5.58 nM.

Values taken from patent publication US20220380342A1, “BIPHENYL DERIVATIVES FOR BLOCKING PD-1/PD-L1 INTERACTION, PREPARATION METHOD THEREFOR AND USE THEREOF” (Abbisko Therapeutics Co., Ltd., priority 2019, published 2022).
